The values that follow come from BindingDB's records for doi:10.1016/j.bmcl.2004.08.011 (Abbott Laboratories, 2004).

The target in the experiment is Protein farnesyltransferase subunit beta/geranylgeranyltransferase type-1 subunit alpha (Mus musculus, UniProt Q61239+Q8K2I1). Description: Inhibition of H-Ras transformed NIH-3T3-cell proliferation.

A word on the EC50: it is the midpoint of the concentration-response curve. Read a low EC50 as greater potency. `CC(=O)c1ccc(-c2cc(C#N)ccc2COCc2cncn2Cc2ccc(C#N)cc2)cc1` [4'-acetyl-6-(((1-(4-cyanobenzyl)-1H-imidazol-5-yl)methoxy)methyl)biphenyl-3-carbonitrile] registered an EC50 of 77 nM.

`N#Cc1ccc(Cn2cncc2COc2ccc(C#N)c(-c3cccc4ccccc34)c2)cc1` [4-((1-(4-cyanobenzyl)-1H-imidazol-5-yl)methoxy)-2-(naphthalen-1-yl)benzonitrile] had an EC50 of 1.2 nM.

On to `N#Cc1ccc(COCc2cncn2Cc2ccc(C#N)cc2-c2cccc3ccccc23)cc1` [4-[5-(4-cyano-benzyloxymethyl)-imidazol-1-ylmethyl]-3-naphthalen-1-yl-benzonitrile], for which the concentration giving a half-maximal response (EC50) was determined as 461 nM.

In the case of `CCOc1cccc(-c2cc(C#N)ccc2COCc2cncn2Cc2ccc(C#N)nc2)c1` [5-((5-(((5-cyano-3'-ethoxybiphenyl-2-yl)methoxy)methyl)-1H-imidazol-1-yl)methyl)picolinonitrile], the response was half-maximal at 17 nM (EC50).

In the case of `N#Cc1ccc(COCc2cncn2Cc2ccc(C#N)nc2)c(-c2ccc3c(c2)OCO3)c1` [5-[5-(2-Benzo[1,3]dioxol-5-yl-4-cyano-benzyloxymethyl)-imidazol-1-ylmethyl]-pyridine-2-carbonitrile], the EC50 was 16 nM.

In turn, `N#Cc1ccc(Cn2cncc2COCc2ccc(C#N)cc2-c2ccc3c(c2)OCO3)nc1` [6-((5-((2-(benzo[d][1,3]dioxol-5-yl)-4-cyanobenzyloxy)methyl)-1H-imidazol-1-yl)methyl)nicotinonitrile] came in with an EC50 of 29 nM.

The compound `CCOc1cccc(-c2cc(C#N)ccc2COCc2cncn2Cc2ccc(Cl)cc2)c1` [6-(((1-(4-chlorobenzyl)-1H-imidazol-5-yl)methoxy)methyl)-3'-ethoxybiphenyl-3-carbonitrile] displayed an EC50 of 34 nM.

Take `N#Cc1ccc(Cn2cncc2COCc2ccc(C#N)cc2-c2ccc(C(F)(F)F)cc2)cc1` [6-(((1-(4-cyanobenzyl)-1H-imidazol-5-yl)methoxy)methyl)-4'-(trifluoromethyl)biphenyl-3-carbonitrile]: the EC50 was 1.6 nM.

Turning to `N#Cc1ccc(OCc2cncn2Cc2ccc(C#N)c(-c3cccc4ccccc34)c2)nc1` [6-[3-(4-Cyano-3-naphthalen-1-yl-benzyl)-3H-imidazol-4-ylmethoxy]-nicotinonitrile], the EC50 was 60 nM.

On to `N#Cc1ccc(Cn2cncc2COCc2ccc(C#N)cc2-c2cccc(Cl)c2)nc1` [6-[5-(3''-Chloro-5-cyano-biphenyl-2-ylmethoxymethyl)-imidazol-1-ylmethyl]-nicotinonitrile], for which the EC50 was 155 nM.
